Assays:
Assay type in all cases: functional, organism-based
Mus musculus [1] = assay: Blood schizonticidal activity against Plasmodium berghei in mice (Mus musculus) at the dose of 160 mg/kg; Inactive; design: dose 160 mg/kg
Mus musculus [2] = assay: Blood schizonticidal activity against Plasmodium berghei in mice (Mus musculus) at the dose of 40 mg/kg; Inactive; design: dose 40 mg/kg
Mus musculus [3] = assay: Blood schizonticidal activity against Plasmodium berghei in mice (Mus musculus) at the dose of 640 mg/kg; Inactive; design: dose 640 mg/kg

CC12CCC(O)C(C)(C)[C@@]13C=CC(C2)OO3 (some centres not stated)
Not Active: Activity call (Mus musculus [1]) | Blood schizonticidal activity (Mus musculus [2]) | Activity (active/inactive) (Mus musculus [3])

CC(=O)OC1CCC2(C)CC3C=C[C@]2(OO3)C1(C)C (some centres not stated)
Not Active: Activity call (Mus musculus [1]) | Blood schizonticidal activity (Mus musculus [2]) | Activity (active/inactive) (Mus musculus [3])

CC12CCC(O)C(C)(C)C13CCC(C2)OO3 (configuration not stated)
Not Active: Activity call (Mus musculus [1]) | Blood schizonticidal activity (Mus musculus [2]) | Activity (active/inactive) (Mus musculus [3])

CCCCOC(=O)OC1CCC2(C)CC3CCC2(OO3)C1(C)C (configuration not stated)
Not Active: Activity call (Mus musculus [1]) | Blood schizonticidal activity (Mus musculus [2]) | Activity (active/inactive) (Mus musculus [3])

CC12CCC(OC(=O)c3ccccc3)C(C)(C)C13CCC(C2)OO3 (configuration not stated)
Not Active: Activity call (Mus musculus [1]) | Blood schizonticidal activity (Mus musculus [2]) | Activity (active/inactive) (Mus musculus [3])

CC(=O)OC(C)CCC12OO[C@@H](C=C1C)CC2(C)C (some centres not stated)
Not Active: Activity call (Mus musculus [1]) | Blood schizonticidal activity (Mus musculus [2]) | Activity (active/inactive) (Mus musculus [3])

CC12CCC(OC(=O)c3ccccc3)C(C)(C)[C@@]13C=CC(C2)OO3 (some centres not stated)
Not Active: Activity call (Mus musculus [1]) | Blood schizonticidal activity (Mus musculus [2]) | Activity (active/inactive) (Mus musculus [3])

CC(=O)OC1CCC2(C)CC3CCC2(OO3)C1(C)C (configuration not stated)
Not Active: Activity call (Mus musculus [1]) | Blood schizonticidal activity (Mus musculus [2]) | Activity (active/inactive) (Mus musculus [3])

CC(C)CCCC(C)[C@H]1CC[C@H]2C3CC=C4C[C@@H](OC(=O)OC5CCC6(C)CC7C=CC6(OO7)C5(C)C)CCC4(C)[C@H]3CCC12C (some centres not stated)
Not Active: Activity call (Mus musculus [1]) | Blood schizonticidal activity (Mus musculus [2]) | Activity (active/inactive) (Mus musculus [3])
